Test results as given in US8361970B2, “Growth factor binding molecules” (University of South Florida, priority 2000, dated 2013).
Several values for one entry are separate records, joined by “and”; a condition that tells them apart may be missing. Identical values can stand only once. Like-named read-outs stand apart in the source and are kept apart here.

Columns and labels:
Format in all cases: cell-based
[1] = system: PDGF-stimulated PDGFR tyrosine phosphorylation; assay: Inhibition of PDGF-stimulated PDGFR tyrosine phosphorylation in NIH 3T3 cells (anti-phosphotyrosine Western blot); conditions: 5 min pretreatment, PDGF 10 ng/ml 10 min, read-out: (IC50) Inhibition PDGFR-Y-P
Procedure: Starved NIH 3T3 cells are pretreated with various growth factor binding agents (0-100 μM) for 5 min before stimulation with PDGF (10 ng/mL) for 10 min. The cells are then harvested and lysed, and the proteins from the lysates separated by SDS-PAGE and immunoblotted with an anti-phosphotyrosine antibody (4G10: Upstate Biotechnology, Lake Placid, N.Y.). The phosphotyrosine PDGF receptor bands are scanned, and the concentrations of growth factor binding molecules that inhibited the ability of PDGF to stimulate PDGFR tyrosine phosphorylation by 50% are determined.
(§1) Starved NIII 3T3 cells (PDGF-BB and PDGF-AA), NIH 3T3 cells overexpressing either EGFR (EGF) or Flk-1 (VEGF) are pre-treated with the indicated concentrations of GFB-111 for 5 minutes before 10 minutes of stimulation with PDGF-BB (10 ng/ml), PDGF-AA (10 ng/ml), EGF (100 ng/ml) and VEGF (50 ng/ml). Cell lysates are run on SDS-PAGE gels, then transferred to nitrocellulose and Western blotted with anti-phosphotyrosine (4G 10) or anti-phosphorylated Erk1/Erk2 (New England Biolabs).
A novel series of protein surface binding agents are prepared that bind PDGF and disrupt its signaling function. The molecules are composed of a central calix[4] arene scaffold to which is attached four peptide loop domains (FIG. 1). The peptide loop component is based on a cyclic hexapeptide in which two residues are replaced by a 3-aminomethylbenzoate dipeptide mimetic containing a 5-amino substituent for attachment to the scaffold. The resulting molecules (as shown in Table 1) contain a functionalized and variable surface approximately 500 Å^2 in area. Several peptide loop sequences are synthesized (Table 1) to provide molecular surfaces with negatively and positively charged as well as hydrophobic regions designed to bind to complementary areas on the target growth factor. To identify PDGF binding molecules from this library, a cell-based screening assay is developed with NIH 3T3 cells to detect molecules capable of blocking PDGF-BB-induced tyrosine autophosphorylation of the PDGF receptor. The ability of the identified molecules to bind PDGF-BB and inhibit interaction with its receptor is then confirmed biochemically. Starved NIH 3T3 cells are pretreated for 5 min with the synthetic molecules prior to stimulation with PDGF for 10 min. The effects of the molecules on PDGF-stimulated receptor tyrosine phosphorylation are determined by the antiphosphotyrosine Western blotting as described in Table 1. […] GFB-111 has four-fold symmetry containing 4 identical peptide loops with negative and hydrophobic residues, GlyAspGlyTyr (GDGY) (SEQ ID NO. 6), that are designed to be complementary to the PDGF surface involved in binding to PDGFR. The area of PDGF-BB that binds PDGFR is composed primarily of positive and hydrophobic residues.
Starved NIH 3T3 cells are pretreated with the various GFBs (0-100 μM) for 5 min. prior to stimulation with PDGF (10 ng/ml) for 10 min. The cells are then harvested lysed and the proteins from the lysates are separated by SDS-PAGE and immunoblotted with an anti-phosphotyrosine antibody (4G10, Upstate Biotechnology, Lake Placid, N.Y.). The phosphotyrosine PDGF receptor bands are scanned and the concentrations of GFBs that inhibit the ability of PDGF to stimulate PDGFR tyrosine phosphorylation by 50% are determined. Data for each compound is representative of at least two independent experiments. FIG. 1 illustrates the structure of growth factor binders. GFBs are synthesized as described by Park, H. D. et al., Protein surface recognition by synthetic receptors: A route to novel sub-micromolar inhibitors for chymotrypsin. J. Am. Chem. Soc. 121, 8-13 (1999); and Hamuro, Y. et al., A calixarene with four peptide loops: An antibody mimic for recognition of protein surfaces. Angew. Chemie Int. Ed. Engl. 36, 2680-2683 (1997), each herein incorporated by reference in its respective entirety.

[2] = system: PDGF-stimulated Erk1/Erk2 activation; assay: Inhibition of PDGF-stimulated activation of MAPK Erk1/Erk2 (p44/p42) in NIH 3T3 cells; conditions: NIH 3T3, PDGF stimulated
Procedure: as §1
(§2) In other experiments, starved NIH 3T3 cells (PDGF-AA, PDGF-BB, aFGF, bFGF), NIH 3T3 cells overexpressing EGFR. IGF-1R or Flk-1 and the human breast carcinoma SkBr3 that overexpresses ErbB2 (HRGβ) are pretreated with GFB-111 (100 μM) for 5 min before 10 min stimulation with the indicated growth factors at the concentrations shown above and aFGF (10 ng/ml), bFGF (50 ng/ml), IGF-1 (50 ng/ml) and HRGβ (10 ng/ml). Cell lysates are then immunoblotted with anti-phospho Erk1/Erk2 as described above.

[3] = system: VEGF-stimulated Flk-1 tyrosine phosphorylation; assay: Inhibition of VEGF-stimulated Flk-1 tyrosine phosphorylation in Flk-1/3T3 cells; conditions: Flk-1/3T3, VEGF stimulated; read-out: (IC50) Inhibition Flk-1-Y-P
Procedure: as §1
(§3) In order to identify molecules that would bind vascular endothelial growth factor (VEGF), Flk-1/3T3 cell-based assay is used that relies on VEGF-stimulation of its receptor, Flk-1, tyrosine phosphorylation and subsequent MAP-kinase activation. The assay used herein identical to that used for PDGF, except that NIH 3T3 cells that overexpress Flk-1 are used. GFB-116, which has four identical loops with the sequence GKGK (SEQ ID NO. 10) is shown to be very potent and selective toward blocking the ability of VEGF to stimulate Flk-1 tyrosine phosphorylation and subsequent MAP-kinase activation as measured by phospho erk-1 and erk-2 also referred to in the Table as p42 and p44 (Table 4A). A preferred embodiment of the invention is a compound that binds to a vascular endothelial growth factor, of the general structure III (above) in which R is n-butyl, n-propyl, or benzyl, and X comprise covalently attached identical cyclic peptide loops wherein R1, R2, R3, and R4 are each amino acid side chains, as broadly defined above, that define a tetrapeptide sequence, wherein said tetrapeptide is covalently attached at the amino and carboxy termini of said tetrapeptide to 3-aminomethyl-5-aminobenzamide linking group, and wherein said tetrapeptide sequence is GKGK (SEQ ID NO. 10), GDGY (SEQ ID NO. 6), or functionally related derivatives thereof.

[4] = system: VEGF-stimulated MAP kinase activation; assay: Inhibition of VEGF-stimulated MAP kinase (p42/p44, Erk2/Erk1) activation in Flk-1/3T3 cells; conditions: Flk-1/3T3, VEGF stimulated
Procedure: as §1, §2, §3

[5] = system: IGF-1 stimulated IGF-1R tyrosine phosphorylation; assay: Inhibition of IGF-1 stimulated IGFR tyrosine phosphorylation in IGFR/3T3 cells; conditions: for % Inhibition at 100 μM IGF1R-Y-P: IGFR/3T3, IGF-1 stimulated
Procedure: (§4) The ability of the GFB library to block the ability of IGF-1 to stimulate the IFG-1 R tyrosine phosphorylation and MAP kinase activation is evaluated using the cell assay described above with IGF-1R/3T3 cells as target cell. […] A preferred embodiment of the invention is a compound that binds to an insulin-like growth factor-1, of the general structure III, wherein R is n-butyl, n-propyl, or benzyl, and X1, X2, X3, and X4 optionally comprise identical cyclic peptide loops of the general structure II, and wherein R1, R2, R3, and R4 are each amino acid side chains that define a tetrapeptide sequence, wherein said tetrapeptide is covalently attached at the amino and carboxy termini of said tetrapeptide to a 3-aminomethyl-5-aminobenzamide linking group.

[6] = system: IGF-1 stimulated MAP kinase activation; assay: Inhibition of IGF-1 stimulated MAP kinase (p42/p44) activation in IGFR/3T3 cells; conditions: 100 μM; IGFR/3T3, IGF-1 stimulated
Procedure: as §2, §4

[7] = system: EGF-stimulated EGFR tyrosine phosphorylation and Erk1/Erk2 activation; assay: EGF-stimulated EGFR tyrosine phosphorylation and Erk1/Erk2 activation in NIH 3T3 cells overexpressing EGFR; conditions: GFB-111 at concentrations as high as 100 μM
Procedure: as §1

[8] = system: aFGF-stimulated MAP kinase activation of p42 and p44; assay: Inhibition of aFGF stimulation of p42/p44 MAP kinase in NIH 3T3 cells; conditions: NIH 3T3
Procedure: as §2
The ability of growth factor binding agents in the library of growth factor binding agents to block an aFGF signal is measured by aFGF-stimulation of MAP kinase activation of p42 and p44 essentially as described above for VEGF. NIH 3T3 cells are used as the target cell. […] A preferred embodiment of the invention is a compound that binds to acidic fibroblast growth factor, of the general structure III, in which R is n-butyl, n-propyl, or benzyl, and X1, X2, X3, and X4 optionally comprise covalently attached cyclic peptide loops of the general structure II, wherein R1, R2, R3, and R4 are each amino acid side chains that define a tetrapeptide sequence, wherein said tetrapeptide is covalently attached at the amino and carboxy termini of said tetrapeptide to a 3-aminomethyl-5-aminobenzamide linking group, and wherein said tetrapeptide sequence is as given, for example, in Table 5.

[9] = head p42/Erk2 (p42 for GFB-132 to 137), read-out: (IC50) Inhibition p42/Erk2
[10] = read-out: (IC50) Inhibition p42
[11] = read-out: (IC50) Inhibition p44

## GDSD [GFB-113]
[1]
  IC50: 2.8 µM
[2]; [9]
  IC50: 30 µM
[3]
  IC50: < 10 µM
[4]; [10]
  IC50: 10 µM
[4]; [11]
  IC50: 10 µM
[5]
  % Inhibition at 100 μM IGF1R-Y-P: −18.9%
[6]
  % Inhibition at 100 μM p42: −31.4%
  % Inhibition at 100 μM p44: 18.7%

## CNc1cc2c(Nc3cccc(Br)c3)ncnc2cn1 [PD158780, reference compound]
[7]
  Effect on EGF-stimulated EGFR tyrosine phosphorylation and Erk1/Erk2 activation: blocks

## ADGD [GFB-112]
[1]
  IC50: 29 µM
[2]; [9]
  IC50: 26 µM
[3]
  IC50: < 10 µM
[4]; [10]
  IC50: 10 µM
[4]; [11]
  IC50: 10 µM
[5]
  % Inhibition at 100 μM IGF1R-Y-P: 0.6%
[6]
  % Inhibition at 100 μM p42: −7.6%
  % Inhibition at 100 μM p44: 30.4%

## GDDD [GFB-106]
[1]
  IC50: 8 µM
[2]; [9]
  IC50: 33 µM
[3]
  IC50: < 10 µM
[4]; [10]
  IC50: < 10 µM
[4]; [11]
  IC50: < 10 µM
[8]
  Block of aFGF-stimulation of MAP kinase activation of p42 and p44: very effective

## GDGY [GFB-133]
[1]
  IC50: 0.8 µM
[2]; [9]
  IC50: 3.2 µM
[2]; [11]
  IC50: 3 µM
[8]
  Block of aFGF-stimulation of MAP kinase activation of p42 and p44: very effective

## GDDG [GFB-126]
[1]
  IC50: 1.9 µM
[2]; [9]
  IC50: 4.6 µM
[8]
  Block of aFGF-stimulation of MAP kinase activation of p42 and p44: very effective
[5]
  % Inhibition at 100 μM IGF1R-Y-P: 51.7% and 51.0%
[5]; IGF-1R/3T3 cells
  Blocking IGF-1 action: particularly effective
[6]
  % Inhibition at 100 μM p42: 63.9% and 47.0%
  % Inhibition at 100 μM p44: 71.2% and 79.2%

## GDDG [GFB-127]
[1]
  IC50: 32 µM
[2]; [9]
  IC50: > 50 µM
[8]
  Block of aFGF-stimulation of MAP kinase activation of p42 and p44: very effective
[5]
  % Inhibition at 100 μM IGF1R-Y-P: 36.8% and 31.8%
[6]
  % Inhibition at 100 μM p42: 38.4% and 27.2%
  % Inhibition at 100 μM p44: 61.6% and 74.4%

## GDFD [GFB-105]
[1]
  IC50: 2.4 µM
[2]; [9]
  IC50: 28 µM
[3]
  IC50: < 10 µM
[4]; [10]
  IC50: > 100 µM
[4]; [11]
  IC50: > 100 µM
[5]
  % Inhibition at 100 μM IGF1R-Y-P: 1.3%
